One data set can be described thus: kinetic solubility. In kind it is physicochemical. The following applies: PBS pH = 7. The procedure: (§1) Kinetic solubility, microsomal stability, and plasma stability were determined following our internal protocol (Symeres). The Caco-2 and PPB determinations were performed by Cyprotex.
Data set [1] relates to COLO 320DM cells. In words: cells. The procedure: (§2) After 5 days, the antiproliferative effect of compound treatment was measured at 490 nm. Mean value ± standard deviation (SD) for one representative experiment of more than three repeated assays, each with six replicates, are shown. […] (b) Representative immunoblots of cytoplasmic TNKS1/2, AXIN1, AXIN2, and cytoplasmic and nuclear transcriptionally active β-catenin (non-phospho) and β-catenin. […] For (b) and (c), control = 0.001% DMSO. (c) Real-time RT-qPCR analyses of WNT/β-catenin signaling target genes (AXIN2, DKK1, NKD1, and APCDD1). Boxplots show median, first and third quartiles, and maximum and minimum whiskers for combined data from three independent experiments with three replicates each. Dotted lines depict the control mean value = 1. For (a) and (c), analysis of variance (ANOVA) tests (Holm–Sidak method, versus control) are indicated by *** (p < 0.001) and * (p < 0.05), while ANOVA on ranks tests (Dunn’s method, versus control) are indicated by ^† (p < 0.05).
Antiproliferative assays using colon cancer cell lines COLO 320DM and RKO were performed as previously described.[39]

The test system of data set [2] is Cerep Safety panel 44 targets. Kind of data set: Cerep safety panel of 44 selected targets. The following applies: 10 μM. The protocol:
A safety panel (Cerep) of 44 selected targets (n = 2) including hERG Inhibition using 10 μM 24 was performed by Eurofins. Ames and CYP3A4 inhibition assays were performed by Cyprotex, and the PXR assay (CYP induction) was performed at Admescope. The PARP assays are described below.

For another data set, the target named is T1, PARP1 (Homo sapiens, UniProt P09874).
T1 construct: made in house
Kind of data set: PARP1 biochemical assay. Particulars: > under 50% inhibition. The protocol: (§3) All reactions were performed at ambient temperature.
(§4) The assay conditions for the other PARP enzymes were used as previously described.[39]

For a further data set, the target named is T2, PARP3 (Homo sapiens, UniProt Q9Y6F1).
T2 construct: made in house
Kind of data set: PARP3 biochemical assay. Particulars: > under 50% inhibition. The procedure: The enzymatic assay measures unreacted NAD^+, which is chemically reacted into a fluorescent compound.[53] […] All reactions were performed at ambient temperature.
The assay conditions for the other PARP enzymes were used as previously described.[39] Reference compound OD336 behaved in this assay as previously reported.[28]

Data set [3] deals with COLO 320DM cells. In words: real-time qRT-PCR of WNT/β-catenin target genes in COLO 320DM cells. Particulars: dose-dependent. In kind it is cell-based, human. The procedure:
as §2

The target of a further data set is T3, PARP10 (Homo sapiens, UniProt Q53GL7).
T3 construct: made in house
Kind of data set: PARP10 biochemical assay. The following applies: >>: no inhibition detected. The procedure: as §3, §4

A further data set addresses T4, TNKS1 (Homo sapiens, UniProt O95271).
T4 construct: TNKS1 (residues 1030–1317); made in house
In words: TNKS1 biochemical assay (unreacted NAD+ fluorescence). The following applies: TNKS1 20 nM, 10 μM NAD+, 20 h.

A further data set is described as follows: mouse plasma stability. The following applies: read-out: mouse plasma stability t1/2. The data set is classed as in vitro ADME. The protocol: as §1
Another data set deals with T5, PARP14 (Homo sapiens, UniProt Q460N5).
T5 construct: made in house
In words: PARP14 biochemical assay. Particulars: > under 50% inhibition. The procedure: as §3, §4

Molecules are shown by their SMILES. Values after ≈ are worked out from the molar mass of the structure shown. Where two headings read alike, the source gives them in different places. Where only a bound is given, the exact number is not on record here.

T4 sequence (O95271 1030-1317): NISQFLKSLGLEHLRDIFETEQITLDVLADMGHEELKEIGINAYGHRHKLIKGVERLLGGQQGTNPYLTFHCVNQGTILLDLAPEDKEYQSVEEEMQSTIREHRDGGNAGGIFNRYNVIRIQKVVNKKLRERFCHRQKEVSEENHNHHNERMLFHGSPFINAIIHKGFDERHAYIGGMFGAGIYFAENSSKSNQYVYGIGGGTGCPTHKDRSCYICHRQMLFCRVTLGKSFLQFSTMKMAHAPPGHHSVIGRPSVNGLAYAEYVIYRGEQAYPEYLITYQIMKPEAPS
T1 sequence (P09874 whole entry): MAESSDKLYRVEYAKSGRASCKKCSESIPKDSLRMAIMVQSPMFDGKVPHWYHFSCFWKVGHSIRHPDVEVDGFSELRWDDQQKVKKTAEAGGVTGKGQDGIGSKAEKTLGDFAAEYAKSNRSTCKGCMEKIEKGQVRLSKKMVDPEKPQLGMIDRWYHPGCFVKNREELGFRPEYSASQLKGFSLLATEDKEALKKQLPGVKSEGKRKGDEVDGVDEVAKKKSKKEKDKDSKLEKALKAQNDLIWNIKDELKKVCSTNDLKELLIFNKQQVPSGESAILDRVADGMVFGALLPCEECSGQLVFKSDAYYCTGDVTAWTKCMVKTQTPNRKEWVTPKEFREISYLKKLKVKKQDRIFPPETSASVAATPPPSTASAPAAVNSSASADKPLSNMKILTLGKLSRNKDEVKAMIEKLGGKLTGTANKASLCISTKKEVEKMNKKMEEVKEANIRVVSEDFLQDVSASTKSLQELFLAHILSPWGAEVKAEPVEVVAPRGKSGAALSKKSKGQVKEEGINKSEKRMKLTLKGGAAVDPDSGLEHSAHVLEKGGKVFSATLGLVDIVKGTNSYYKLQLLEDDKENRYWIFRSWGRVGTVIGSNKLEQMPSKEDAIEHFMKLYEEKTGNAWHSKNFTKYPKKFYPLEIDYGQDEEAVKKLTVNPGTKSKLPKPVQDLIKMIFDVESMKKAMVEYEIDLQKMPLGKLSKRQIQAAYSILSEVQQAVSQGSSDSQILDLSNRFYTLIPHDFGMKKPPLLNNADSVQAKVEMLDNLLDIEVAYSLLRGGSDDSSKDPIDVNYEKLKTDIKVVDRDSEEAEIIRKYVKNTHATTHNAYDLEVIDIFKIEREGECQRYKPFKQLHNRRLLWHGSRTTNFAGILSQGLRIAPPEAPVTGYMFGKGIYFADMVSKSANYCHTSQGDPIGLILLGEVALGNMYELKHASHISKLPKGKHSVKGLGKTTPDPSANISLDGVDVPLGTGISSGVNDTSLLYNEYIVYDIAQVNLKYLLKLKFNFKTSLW
T3 sequence (Q53GL7 whole entry): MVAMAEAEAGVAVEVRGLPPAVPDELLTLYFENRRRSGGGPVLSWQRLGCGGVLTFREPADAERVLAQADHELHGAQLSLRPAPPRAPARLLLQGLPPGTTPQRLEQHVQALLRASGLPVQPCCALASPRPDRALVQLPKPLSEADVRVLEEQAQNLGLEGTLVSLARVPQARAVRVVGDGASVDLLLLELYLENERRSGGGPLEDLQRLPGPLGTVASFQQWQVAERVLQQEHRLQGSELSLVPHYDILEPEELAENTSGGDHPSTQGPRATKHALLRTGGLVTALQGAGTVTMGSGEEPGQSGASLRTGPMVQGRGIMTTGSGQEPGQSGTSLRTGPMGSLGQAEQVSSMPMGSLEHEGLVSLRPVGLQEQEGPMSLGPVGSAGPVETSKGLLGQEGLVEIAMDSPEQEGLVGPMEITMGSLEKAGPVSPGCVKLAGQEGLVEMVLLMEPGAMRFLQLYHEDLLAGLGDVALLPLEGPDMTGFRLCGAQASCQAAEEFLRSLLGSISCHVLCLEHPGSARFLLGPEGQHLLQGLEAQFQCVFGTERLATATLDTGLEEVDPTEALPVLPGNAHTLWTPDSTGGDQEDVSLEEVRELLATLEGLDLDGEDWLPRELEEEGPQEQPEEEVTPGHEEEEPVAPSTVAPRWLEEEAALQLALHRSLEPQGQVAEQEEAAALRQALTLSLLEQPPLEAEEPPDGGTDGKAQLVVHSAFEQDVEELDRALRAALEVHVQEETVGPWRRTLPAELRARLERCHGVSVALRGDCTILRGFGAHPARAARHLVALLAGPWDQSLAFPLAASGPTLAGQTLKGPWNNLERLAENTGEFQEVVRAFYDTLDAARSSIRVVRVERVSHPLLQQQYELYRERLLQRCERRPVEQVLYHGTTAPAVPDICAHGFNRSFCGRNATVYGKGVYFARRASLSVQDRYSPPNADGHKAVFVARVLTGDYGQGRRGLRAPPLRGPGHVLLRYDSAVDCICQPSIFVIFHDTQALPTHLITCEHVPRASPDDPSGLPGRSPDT
T2 sequence (Q9Y6F1 whole entry): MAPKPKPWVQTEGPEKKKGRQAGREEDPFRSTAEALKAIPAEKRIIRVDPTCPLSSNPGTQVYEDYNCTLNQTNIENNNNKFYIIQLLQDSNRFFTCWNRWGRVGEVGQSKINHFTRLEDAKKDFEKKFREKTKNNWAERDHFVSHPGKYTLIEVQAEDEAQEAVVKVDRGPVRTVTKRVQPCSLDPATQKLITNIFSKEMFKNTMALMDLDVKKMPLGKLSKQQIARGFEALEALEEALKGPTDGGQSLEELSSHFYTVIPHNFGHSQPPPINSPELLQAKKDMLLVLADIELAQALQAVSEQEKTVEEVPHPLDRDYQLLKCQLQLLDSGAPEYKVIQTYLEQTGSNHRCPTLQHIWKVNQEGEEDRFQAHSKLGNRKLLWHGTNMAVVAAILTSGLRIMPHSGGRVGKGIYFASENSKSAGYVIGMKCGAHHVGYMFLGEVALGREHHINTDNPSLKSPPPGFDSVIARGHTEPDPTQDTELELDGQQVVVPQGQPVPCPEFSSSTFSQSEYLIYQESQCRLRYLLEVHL
T5 sequence (Q460N5 whole entry): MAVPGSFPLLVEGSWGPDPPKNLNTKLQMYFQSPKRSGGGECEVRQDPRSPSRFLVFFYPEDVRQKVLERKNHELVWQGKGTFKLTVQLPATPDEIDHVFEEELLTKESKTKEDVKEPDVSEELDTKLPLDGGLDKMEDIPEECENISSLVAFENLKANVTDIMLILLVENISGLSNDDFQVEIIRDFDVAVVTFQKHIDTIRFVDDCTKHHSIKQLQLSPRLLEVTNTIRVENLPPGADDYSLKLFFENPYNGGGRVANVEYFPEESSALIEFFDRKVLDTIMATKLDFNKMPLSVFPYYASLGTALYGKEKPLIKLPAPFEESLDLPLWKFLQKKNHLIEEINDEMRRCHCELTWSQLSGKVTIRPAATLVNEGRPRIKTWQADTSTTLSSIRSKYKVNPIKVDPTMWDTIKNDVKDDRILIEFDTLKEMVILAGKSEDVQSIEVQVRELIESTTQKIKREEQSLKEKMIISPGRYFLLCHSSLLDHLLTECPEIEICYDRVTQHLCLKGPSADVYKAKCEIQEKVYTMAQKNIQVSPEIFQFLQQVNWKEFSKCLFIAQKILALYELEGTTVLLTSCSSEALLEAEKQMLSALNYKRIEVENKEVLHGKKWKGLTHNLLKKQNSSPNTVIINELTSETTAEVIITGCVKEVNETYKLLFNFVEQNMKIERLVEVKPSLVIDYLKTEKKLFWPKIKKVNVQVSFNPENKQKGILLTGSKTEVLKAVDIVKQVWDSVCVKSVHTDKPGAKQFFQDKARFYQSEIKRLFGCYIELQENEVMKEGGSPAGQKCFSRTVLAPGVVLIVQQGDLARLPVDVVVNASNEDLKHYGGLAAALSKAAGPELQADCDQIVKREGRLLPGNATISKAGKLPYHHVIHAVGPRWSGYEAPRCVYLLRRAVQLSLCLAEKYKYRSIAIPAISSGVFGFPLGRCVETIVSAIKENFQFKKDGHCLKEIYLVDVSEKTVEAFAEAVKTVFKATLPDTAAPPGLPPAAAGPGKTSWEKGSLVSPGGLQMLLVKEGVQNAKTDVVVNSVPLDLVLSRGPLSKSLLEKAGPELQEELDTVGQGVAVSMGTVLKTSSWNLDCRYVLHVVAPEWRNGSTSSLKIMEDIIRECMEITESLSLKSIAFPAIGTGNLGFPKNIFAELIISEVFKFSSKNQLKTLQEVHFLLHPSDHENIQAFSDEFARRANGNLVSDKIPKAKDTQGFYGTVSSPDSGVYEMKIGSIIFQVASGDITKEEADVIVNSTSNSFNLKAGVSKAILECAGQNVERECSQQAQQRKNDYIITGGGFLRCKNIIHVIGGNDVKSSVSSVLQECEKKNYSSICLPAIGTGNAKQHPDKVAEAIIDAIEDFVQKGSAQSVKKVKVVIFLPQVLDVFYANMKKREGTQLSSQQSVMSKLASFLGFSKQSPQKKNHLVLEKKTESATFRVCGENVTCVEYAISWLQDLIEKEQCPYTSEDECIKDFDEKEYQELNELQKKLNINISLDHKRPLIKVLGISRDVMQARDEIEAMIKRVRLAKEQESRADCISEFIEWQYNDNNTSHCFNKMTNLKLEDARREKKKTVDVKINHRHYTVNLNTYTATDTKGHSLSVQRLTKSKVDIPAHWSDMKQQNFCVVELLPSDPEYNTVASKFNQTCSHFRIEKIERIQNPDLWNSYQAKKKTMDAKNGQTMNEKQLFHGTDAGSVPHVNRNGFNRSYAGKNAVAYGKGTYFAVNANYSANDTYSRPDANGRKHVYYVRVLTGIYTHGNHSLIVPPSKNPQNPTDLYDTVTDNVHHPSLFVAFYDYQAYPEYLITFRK
Experimental for TNKS1: New compounds were prepared in half-log dilution series, and the reactions were carried out in quadruplicates with protein and compound controls to exclude the effect of compound autofluorescence. All reactions were performed at ambient temperature. TNKS1 (20 nM) or TNKS2 (5 nM) was incubated for 20 h in assay buffer (50 mM Bis-Tris propane (BTP), pH 7.0, 0.5 mM Tris(2-carboxyethyl)phosphine (TCEP), 0.01% Triton X-100) with compound and 10 μM or 500 nM NAD^+, respectively.

`CCOc1ccc(-c2nnc([C@H]3C[C@H](NC(=O)c4cccc5nccnc45)C3)n2-c2ccccc2F)nc1` [Compound 24, N-(trans-3-(5-(5-Ethoxypyridin-2-yl)-4-(2-fluorophenyl)-4H-1,2,4-triazol-3-yl)cyclobutyl)quinoxaline-5-carboxamide] gave a kinetic solubility at 1 h in “kinetic solubility” of 31 µM (≈ 15.8 µg/mL). Also, the GI50 was found to be 10.1 nM with COLO 320DM cells [1] (Homo sapiens, COLO 320DM, 120 h, read-out: COLO 320DM cells GI50, MTS, 5 days) and 10 nM with COLO 320DM cells [1] (read-out: COLO 320DM cells GI50, MTS, 5 days). Also, the “COLO 320DM cells GI25” value with COLO 320DM cells [1] (MTS, 5 days) is recorded as 2.5 nM. In data set [2], the “Cerep Safety panel 44 targets (overall result)” value is recorded as “clean”. The “Cerep Safety panel 44 targets inhibition, all targets” value in [2] (n = 2) is below 50%. Further, the 50% inhibitory concentration (IC50) is above 100000 nM at PARP1; above 100000 nM against PARP3; above 10000 nM at PARP10; 13 nM against TNKS1; above 100000 nM on PARP14. Moreover, the “transcripts of WNT/β-catenin target genes AXIN2, DKK1, NKD1, APCDD1” value with COLO 320DM cells [3] is “reduced levels”. The “TNKS1 pIC50 ± SEM” value at TNKS1 amounted to 7.90 ± 0.054. Further, in the data set “mouse plasma stability”, the half-life was above 2 h.

These data come from publication PMC8713164, “Development of a 1,2,4-Triazole-Based Lead Tankyrase Inhibitor: Part II” (Journal of Medicinal Chemistry, 2021).
